pKi: −log10 of the molar value. Read-outs that look alike come from different tables or passages of the source.
Columns and labels:
human D3 receptor = human D3 receptor (Homo sapiens (Human), UniProt P35462); assay: Radioligand binding assay, [3H]-spiperone, human D3 receptor; conditions: membranes of HEK293 EBNA cells expressing human D3; 0.5 nM [3H]-spiperone
How it was run: (§1)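 Incubation was 1 h at RT, using 1.1 nM [3H]-ketanserin at 5-HT2A or 0.5 nM [3H]-spiperone at D3, on membranes of transiently transfected HEK293 EBNA cells. Nonspecific binding was set with 10 μM unlabelled spiperone.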

human D2 receptor = human D2 receptor (Homo sapiens (Human), UniProt P14416); assay: Radioligand binding assay, [3H]-spiperone, human D2 receptor; conditions: membranes of HEK293 EBNA cells expressing human D2; 0.7 nM [3H]-spiperone
human D2 receptor, sequence (P14416 whole entry): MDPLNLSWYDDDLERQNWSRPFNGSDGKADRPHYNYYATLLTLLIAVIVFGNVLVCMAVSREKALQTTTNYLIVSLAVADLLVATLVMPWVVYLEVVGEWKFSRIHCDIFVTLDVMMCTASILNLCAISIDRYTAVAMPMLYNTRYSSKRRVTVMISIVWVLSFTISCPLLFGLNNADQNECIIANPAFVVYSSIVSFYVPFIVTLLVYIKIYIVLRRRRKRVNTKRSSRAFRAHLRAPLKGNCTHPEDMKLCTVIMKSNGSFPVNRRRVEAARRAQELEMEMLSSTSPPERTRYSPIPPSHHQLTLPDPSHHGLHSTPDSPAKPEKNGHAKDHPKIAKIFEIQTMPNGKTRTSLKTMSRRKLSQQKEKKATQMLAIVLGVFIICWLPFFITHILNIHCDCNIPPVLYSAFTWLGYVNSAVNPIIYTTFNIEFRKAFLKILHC
How it was run: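 Competition binding used ~0.7 nM [3H]-spiperone, 1 h at room temperature, pH 7.4 Tris/salt buffer, on transiently transfected HEK293 EBNA membranes bearing human D2.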

human 5-HT2A receptor = human 5-HT2A receptor (Homo sapiens (Human), UniProt P28223); assay: Radioligand binding assay, [3H]-ketanserin, human 5-HT2A receptor
human 5-HT2A receptor, sequence (P28223 whole entry): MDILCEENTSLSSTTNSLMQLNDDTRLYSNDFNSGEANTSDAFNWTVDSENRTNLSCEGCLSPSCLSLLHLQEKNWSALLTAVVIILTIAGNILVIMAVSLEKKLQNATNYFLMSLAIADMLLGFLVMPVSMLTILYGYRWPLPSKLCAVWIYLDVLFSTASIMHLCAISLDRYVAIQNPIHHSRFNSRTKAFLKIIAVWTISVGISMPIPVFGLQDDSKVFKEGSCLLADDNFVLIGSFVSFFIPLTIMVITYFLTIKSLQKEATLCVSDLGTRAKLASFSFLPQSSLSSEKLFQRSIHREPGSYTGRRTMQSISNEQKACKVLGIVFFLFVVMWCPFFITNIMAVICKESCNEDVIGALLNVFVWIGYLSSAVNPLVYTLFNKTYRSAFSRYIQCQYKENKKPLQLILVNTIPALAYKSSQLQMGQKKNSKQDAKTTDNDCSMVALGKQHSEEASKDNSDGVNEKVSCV
How it was run: as §1

[1] = membranes of HEK293 EBNA cells expressing human 5-HT2A, 1.1 nM [3H]-ketanserin

human D3 receptor, sequence (P35462 whole entry): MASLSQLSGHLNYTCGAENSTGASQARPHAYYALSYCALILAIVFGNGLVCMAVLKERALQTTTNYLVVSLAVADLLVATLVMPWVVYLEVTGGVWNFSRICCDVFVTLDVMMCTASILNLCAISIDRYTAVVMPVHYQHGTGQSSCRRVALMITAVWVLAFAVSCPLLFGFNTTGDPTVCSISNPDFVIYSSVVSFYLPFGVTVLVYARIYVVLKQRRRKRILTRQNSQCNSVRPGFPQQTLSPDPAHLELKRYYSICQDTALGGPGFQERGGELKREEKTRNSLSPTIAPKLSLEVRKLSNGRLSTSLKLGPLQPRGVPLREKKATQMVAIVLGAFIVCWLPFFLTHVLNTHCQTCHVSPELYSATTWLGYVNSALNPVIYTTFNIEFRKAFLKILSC

SMILES | pKi (human D3 receptor) | melting point [°C] | pKi (human D2 receptor) | pKi (human 5-HT2A receptor; [1]) | pKi (human 5-HT2A receptor)
O=C(N[C@H]1CC[C@H](CCN2CCN(c3nccc4c3CCO4)CC2)CC1)C1CCC1 [Example 52, Cyclobutanecarboxylic acid trans-(4-{2-[4-(2,3-dihydro-furo[3,2-c]pyridin-4-yl)-piperazin-1-yl]-ethyl}-cyclohexyl)-amide] | 7.80 | 202 | 6.26 | 8.00 | 
O=C(CC1COC1)N[C@H]1CC[C@H](CCN2CCN(c3nccc4c3CCO4)CC2)CC1 [Example 77, trans-N-(4-{2-[4-(2,3-Dihydro-furo[3,2-c]pyridin-4-yl)-piperazin-1-yl]-ethyl}-cyclohexyl)-2-oxetan-3-yl-acetamide] | 7.92 | 195 | 6.12 | 7.96 | 
Cc1nc(-c2cccc(C(=O)N[C@H]3CC[C@H](CCN4CCN(c5nccc6c5CCO6)CC4)CC3)c2)no1 [Example 127, trans-N-(4-{2-[4-(2,3-Dihydro-furo[3,2-c]pyridin-4-yl)-piperazin-1-yl]-ethyl}-cyclohexyl)-3-(5-methyl-[1,2,4]oxadiazol-3-yl)-benzamide] | 7.71 | 218 | 5.67 | 7.31 | 
COC(CCC(=O)N[C@H]1CC[C@H](CCN2CCN(c3nccc4c3CCO4)CC2)CC1)OC [Example 114, trans-N-(4-{2-[4-(2,3-Dihydro-furo[3,2-c]pyridin-4-yl)-piperazin-1-yl]-ethyl}-cyclohexyl)-4,4-dimethoxy-butyramide] | 7.17 | 205.5 | 5.63 | 7.74 | 
Cc1cnc(N2CCN(CC[C@H]3CC[C@H](NC(=O)C4CCOCC4)CC3)CC2)c2ccoc12 [Example 105, trans-Tetrahydro-pyran-4-carboxylic acid (4-{2-[4-(7-methyl-furo[3,2-c]pyridin-4-yl)-piperazin-1-yl]-ethyl}-cyclohexyl)-amide] | 7.14 | 228 | 5.95 |  | 8.25
CCS(=O)(=O)N[C@H]1CC[C@H](CCN2CCN(c3nccc4c3CCO4)CC2)CC1 [Example 49, Ethanesulfonic acid trans-(4-{2-[4-(2,3-dihydro-furo[3,2-c]pyridin-4-yl)-piperazin-1-yl]-ethyl}-cyclohexyl)-amide] | 7.66 | 224 | 5.96 |  | 7.75
O=S(=O)(N[C@H]1CC[C@H](CCN2CCN(c3nccc4c3CCO4)CC2)CC1)c1ccc(F)cc1 [Example 50, trans-N-(4-{2-[4-(2,3-Dihydro-furo[3,2-c]pyridin-4-yl)-piperazin-1-yl]-ethyl}-cyclohexyl)-4-fluoro-benzenesulfonamide] | 8.17 | 221 | 6.62 | 7.40 | 
O=C(N[C@H]1CC[C@H](CCN2CCN(c3nccc4c3CCO4)CC2)CC1)c1ccc(C(F)(F)F)cc1 [Example 47, trans-N-(4-{2-[4-(2,3-Dihydro-furo[3,2-c]pyridin-4-yl)-piperazin-1-yl]-ethyl}-cyclohexyl)-4-trifluoromethyl-benzamide] | 7.24 | 227 | 6.06 | 7.73 | 
COC(C)CC(=O)N[C@H]1CC[C@H](CCN2CCN(c3nccc4c3CCO4)CC2)CC1 (stereo partly drawn) [Example 139, trans-N-(4-{2-[4-(2,3-Dihydro-furo[3,2-c]pyridin-4-yl)-piperazin-1-yl]-ethyl}-cyclohexyl)-3-methoxy-butyramide] | 7.39 | 167 | 6.10 |  | 7.52
Cc1cnc(N2CCN(CC[C@H]3CC[C@H](NC(=O)CC4CCOCC4)CC3)CC2)c2c1OCC2 [Example 110, trans-N-(4-{2-[4-(7-Methyl-2,3-dihydro-furo[3,2-c]pyridin-4-yl)-piperazin-1-yl]-ethyl}-cyclohexyl)-2-(tetrahydro-pyran-4-yl)-acetamide] | 7.16 | 199 | 5.53 | 7.36 | 
CCCCC(=O)N[C@H]1CC[C@H](CCN2CCN(c3nccc4c3CCO4)CC2)CC1 [Example 94, Pentanoic acid trans-(4-{2-[4-(2,3-dihydro-furo[3,2-c]pyridin-4-yl)-piperazin-1-yl]-ethyl}-cyclohexyl)-amide] | 7.72 | 180.5 | 5.94 | 7.61 | 
CC[C@@H](O)CC(=O)N[C@H]1CC[C@H](CCN2CCN(c3nccc4c3CCO4)CC2)CC1 [Example 140, (R)-3-Hydroxy-pentanoic acid trans-(4-{2-[4-(2,3-dihydro-furo[3,2-c]pyridin-4-yl)-piperazin-1-yl]-ethyl}-cyclohexyl)-amide] | 7.35 | 161 | 6.07 |  | 7.38
O=C(CC(F)(F)F)N[C@H]1CC[C@H](CCN2CCN(c3nccc4c3CCO4)CC2)CC1 [Example 60, trans-N-(4-{2-[4-(2,3-Dihydro-furo[3,2-c]pyridin-4-yl)-piperazin-1-yl]-ethyl}-cyclohexyl)-3,3,3-trifluoro-propionamide] | 8.18 | 195.5 | 6.16 | 7.96 | 
CC[C@H](O)CC(=O)N[C@H]1CC[C@H](CCN2CCN(c3nccc4c3CCO4)CC2)CC1 [Example 89, (S)-3-Hydroxy-pentanoic acid trans-(4-{2-[4-(2,3-dihydro-furo[3,2-c]pyridin-4-yl)-piperazin-1-yl]-ethyl}-cyclohexyl)-amide] | 7.70 | 158 | 6.05 |  | 7.52
O=C(N[C@H]1CC[C@H](CCN2CCN(c3nccc4c3CCO4)CC2)CC1)c1ccc(Cl)cc1 [Example 46, trans-4-Chloro-N-(4-{2-[4-(2,3-dihydro-furo[3,2-c]pyridin-4-yl)-piperazin-1-yl]-ethyl}-cyclohexyl)-benzamide] | 7.88 | 226.5 | 6.54 |  | 7.83
CO[C@@H](C)C(=O)N[C@H]1CC[C@H](CCN2CCN(c3nccc4c3CCO4)CC2)CC1 [Example 137, trans-(S)—N-(4-{2-[4-(2,3-Dihydro-furo[3,2-c]pyridin-4-yl)-piperazin-1-yl]-ethyl}-cyclohexyl)-2-methoxy-propionamide] | 6.60 | 158.5 | 6.10 | 7.70 | 
O=C(N[C@H]1CC[C@H](CCN2CCN(c3nccc4c3CCO4)CC2)CC1)c1ccc2ncccc2c1 [Example 128, Quinoline-6-carboxylic acid trans-(4-{2-[4-(2,3-dihydro-furo[3,2-c]pyridin-4-yl)-piperazin-1-yl]-ethyl}-cyclohexyl)-amide] | 7.69 | 227 | 6.30 | 7.63 | 
O=C(CCC(F)(F)F)N[C@H]1CC[C@H](CCN2CCN(c3nccc4c3CCO4)CC2)CC1 [Example 95, trans-N-(4-{2-[4-(2,3-Dihydro-furo[3,2-c]pyridin-4-yl)-piperazin-1-yl]-ethyl}-cyclohexyl)-4,4,4-trifluoro-butyramide] | 7.70 | 195.5 | 5.90 |  | 7.53
CC(C)CCC(=O)N[C@H]1CC[C@H](CCN2CCN(c3nccc4c3CCO4)CC2)CC1 [Example 93, 4-Methyl-pentanoic acid trans-(4-{2-[4-(2,3-dihydro-furo[3,2-c]pyridin-4-yl)-piperazin-1-yl]-ethyl}-cyclohexyl)-amide] | 7.64 | 182.5 | 5.89 | 7.61 | 
Cc1cc2c(c(N3CCN(CC[C@H]4CC[C@H](NC(=O)C5CCOCC5)CC4)CC3)n1)CCO2 [Example 101, Tetrahydro-pyran-4-carboxylic acid trans-(4-{2-[4-(6-methyl-2,3-dihydro-furo[3,2-c]pyridin-4-yl)-piperazin-1-yl]-ethyl}-cyclohexyl)-amide] | 7.46 | 234.5 | 5.71 | 7.23 | 
O=C(N[C@H]1CC[C@H](CCN2CCN(c3nccc4c3CCO4)CC2)CC1)C1CCOC1 (mixture of isomers) [Example 42, trans-N-(4-{2-[4-(2,3-Dihydrofuro[3,2-c]pyridin-4-yl)-piperazin-1-yl]-ethyl}-cyclohexyl)-rac-tetrahydrofuran-3-carboxamide] | 7.74 | 208.5 | 6.22 | 8.00 | 
CO[C@H](C)C(=O)N[C@H]1CC[C@H](CCN2CCN(c3nccc4c3CCO4)CC2)CC1 [Example 135, trans-(R)—N-(4-{2-[4-(2,3-Dihydro-furo[3,2-c]pyridin-4-yl)-piperazin-1-yl]-ethyl}-cyclohexyl)-2-methoxy-propionamide] | 6.96 | 159 | 6.17 | 8.15 | 
O=C(N[C@H]1CC[C@H](CCN2CCN(c3nccc4c3CCO4)CC2)CC1)c1ccc(N2CCS(=O)(=O)CC2)cc1 [Example 125, trans-N-(4-{2-[4-(2,3-Dihydro-furo[3,2-c]pyridin-4-yl)-piperazin-1-yl]-ethyl}-cyclohexyl)-4-(1,1-dioxo-1λ6-thiomorpholin-4-yl)-benzamide] | 7.84 | 261.5 | 6.93 | 7.78 | 

Reference: US8586579B2, “Anellated pyridine compounds” (Hoffmann-La Roche Inc., priority 2010, dated 2013)
